Positions of bridges follow the written chain, without caps; N, C: chain ends. Non-standard residues stand in square brackets, D forms with d. Residues, ends and D or L forms follow the SMILES beside them. ξ: configuration not given here. *: point of attachment. X1 = CN(C)c1ccc2c(-c3cc(C(=O)*)ccc3C(=O)[O-])c3ccc(=[N+](C)C)cc-3oc2c1; Ile(3ξ) = CCC(C)[C@H](N)C(=O)O; Ahx = NCCCCCC(=O)O
Columns and labels:
Assay type in all cases: binding
fibrin = biological target: T1, fibrin (Homo sapiens, UniProt P02671+P02675+P02679); assay: Confocal fluorescence imaging of fibrin-optical agent complex on lesion formed by cross-linking fibrinogen with thrombin; details: 0.6 μM optical agent, 0.1 mg/mL fibrinogen, confocal fluorescence imaging ex 555 nm, em 575 nm
T1 sequence (P02671 36-629 limits assumed): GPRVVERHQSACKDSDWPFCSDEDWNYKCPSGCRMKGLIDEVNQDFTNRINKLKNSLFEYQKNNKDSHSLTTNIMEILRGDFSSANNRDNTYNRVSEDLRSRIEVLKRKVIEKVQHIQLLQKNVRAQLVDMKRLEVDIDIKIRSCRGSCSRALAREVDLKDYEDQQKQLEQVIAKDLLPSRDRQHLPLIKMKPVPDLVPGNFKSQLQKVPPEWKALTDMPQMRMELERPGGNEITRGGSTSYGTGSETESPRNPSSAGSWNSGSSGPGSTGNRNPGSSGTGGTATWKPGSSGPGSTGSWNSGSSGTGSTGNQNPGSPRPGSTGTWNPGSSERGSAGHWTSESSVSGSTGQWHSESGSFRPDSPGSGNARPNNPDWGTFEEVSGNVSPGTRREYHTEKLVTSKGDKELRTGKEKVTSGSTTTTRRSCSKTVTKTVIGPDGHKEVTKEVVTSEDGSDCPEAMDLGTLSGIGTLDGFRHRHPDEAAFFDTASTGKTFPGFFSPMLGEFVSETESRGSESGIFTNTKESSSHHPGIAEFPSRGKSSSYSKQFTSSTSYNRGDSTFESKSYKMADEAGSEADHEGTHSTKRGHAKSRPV
T1 sequence (P02675 45-491 limits assumed): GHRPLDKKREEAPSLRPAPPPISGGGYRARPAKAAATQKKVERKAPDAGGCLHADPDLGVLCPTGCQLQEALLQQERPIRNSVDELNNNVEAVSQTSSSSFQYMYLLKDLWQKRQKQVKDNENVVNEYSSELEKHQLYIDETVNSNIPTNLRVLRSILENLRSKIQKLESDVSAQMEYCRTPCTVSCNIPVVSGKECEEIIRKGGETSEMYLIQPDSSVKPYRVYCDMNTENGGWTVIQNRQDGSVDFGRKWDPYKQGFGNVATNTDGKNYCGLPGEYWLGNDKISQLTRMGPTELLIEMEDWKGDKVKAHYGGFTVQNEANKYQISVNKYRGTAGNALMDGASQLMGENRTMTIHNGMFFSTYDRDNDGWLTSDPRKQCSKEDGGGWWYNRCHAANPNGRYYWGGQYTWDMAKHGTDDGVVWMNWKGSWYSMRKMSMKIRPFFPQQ
T1 sequence (P02679 27-437 isoform P02679-2 limits assumed): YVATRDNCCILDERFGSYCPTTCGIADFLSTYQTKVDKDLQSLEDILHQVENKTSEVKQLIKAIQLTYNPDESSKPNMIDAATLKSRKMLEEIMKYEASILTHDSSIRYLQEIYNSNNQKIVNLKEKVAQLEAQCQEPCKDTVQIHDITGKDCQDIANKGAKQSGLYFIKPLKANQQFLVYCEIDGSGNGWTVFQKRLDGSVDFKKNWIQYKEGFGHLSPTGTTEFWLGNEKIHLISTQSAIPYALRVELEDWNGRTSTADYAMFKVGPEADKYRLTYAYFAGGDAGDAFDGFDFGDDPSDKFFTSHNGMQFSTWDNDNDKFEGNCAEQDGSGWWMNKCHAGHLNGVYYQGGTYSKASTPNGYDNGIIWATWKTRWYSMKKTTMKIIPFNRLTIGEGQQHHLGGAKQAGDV
Method: (§1) Site 2/fibrin: 0.1 mg/mL of fibrinogen was mixed with 0.6 μM of an optical agent (Structure XI, see FIG. 3) comprising tetramethylrhodamine as the optical dye. The mixture was coated (approximately 4-20 μL) onto a glass slide and cross-linking of fibrinogen was initiated with 1.3 μg/L of thrombin. Clotting occurred in approximately 15 sec. The slide was imaged using confocal fluorescence imaging (ex 555 nm, em 575 nm).
as §1, with “1/fibrin:” for “2/fibrin:”, “X)” for “XI, see FIG. 3)”, “about 15-20 seconds.” for “approximately 15 sec.”

[1] = biological target: T2, fibrin on a lesion (plasma clot) (Homo sapiens, UniProt P02671+P02675+P02679); assay: Confocal fluorescence imaging of fibrin-optical agent complex on plasma clot formed by clotting human plasma with thrombin; details: 0.6 μM optical agent, platelet rich human plasma, confocal fluorescence imaging ex 555 nm, em 575 nm
T2 construct: from tissue; host or cells: platelet rich human plasma
T2 sequence (P02671 36-629 limits assumed): T1 sequence (P02671 36-629 limits assumed)
T2 sequence (P02675 45-491 limits assumed): T1 sequence (P02675 45-491 limits assumed)
T2 sequence (P02679 27-437 isoform P02679-2 limits assumed): T1 sequence (P02679 27-437 isoform P02679-2 limits assumed)
Method: Site 2/plasma clot: human plasma (platelet rich human plasma) was mixed with 0.6 μM of an optical agent (Structure XI, see FIG. 3) comprising tetramethylrhodamine as the optical dye. The mixture was coated onto a glass slide (approximately 4-20 μL) and clotting of plasma was initiated with 1.3 μg/L of thrombin. Clotting occurred within 15 sec. The slide was imaged using confocal fluorescence imaging (ex 555 nm, em 575 nm).

DD(E) fragment of fibrin = biological target: T3, DD(E) fragment of fibrin (Homo sapiens, UniProt P02671+P02675+P02679, DEL433-453); assay: Dissociation constant (Kd) of optical agent for DD(E) fragment of fibrin; details: 24° C.; read-out: Kd (μM) vs. DD(E) @ 24° C.
T3 construct: complex of the crosslinked D domains of adjacent fibrin monomers with the central E domain of fibrin
Excerpt: Optical agents of the invention include an OD and a FBM covalently bound to each other, either directly or via a linker (OD-L-FBM). The FBM can be a small molecule or a peptide. As used herein, the term “peptide” refers to a chain of amino acids that is about 2 to about 75 amino acids in length (e.g., 3 to 50 amino acids). Affinity of a peptide for fibrin can be expressed in terms of its dissociation constant (Kd), which is the equilibrium constant for the dissociation reaction of the peptide from the DD(E) fragment of fibrin. The term “DD(E) fragment of fibrin” refers to a fibrin subcomponent generated by proteolytic degradation of fibrin with plasmin or trypsin. The DD(E) fragment is a complex of the crosslinked D domains of adjacent fibrin monomers with the central E domain of fibrin (See, for example, Spraggon et al., Nature 389:455462 (1997)). Since DD(E) is a product resulting from the proteolysis of fibrin, one of skill in the art will understand that there may be some slight heterogeneity in its composition. The DD(E) fragment can be biotinylated and immobilized via avidin to a solid substrate (e.g., a multi-well plate). Peptides can be incubated with the immobilized DD(E) fragment in a suitable buffer and binding detected using known methodology. Methods for determining the dissociation constant of the peptide for DD(E) are set forth in WO 01/09188.
As a result of the FBM having affinity for fibrin, the optical agent also has affinity for fibrin. The term “affinity” refers to the capacity of the optical agent to be taken up by, retained by, or bound to the fibrin in the lesion. The affinity of an optical agent can be expressed in terms of its Kd, which is the equilibrium constant for the dissociation reaction of the optical agent from fibrin, and determined as discussed above for the peptide. The dissociation constant of the optical agent for DD(E) can have a value less than about 10 μM (e.g., 0.1 μM to 10 μM). In one embodiment, the dissociation constant value is less than about 5 μM. In another embodiment, the dissociation constant value is less than about 1 μM. The dissociation constant also may have a value less than about 0.3 μM (e.g., 0.2 μM).
In the methods of the present invention, the optical agent forms a fibrin-optical agent complex at the site of the lesion. The ability of the optical agent to form a fibrin-optical agent complex may be measured by examining the optical agent's dissociation constant (Kd) for a DD(E) fragment of fibrin as discussed above.

With `CCC(C)[C@H](NC(=O)[C@H](Cc1c[nH]c2ccccc12)NC(=O)[C@@H]1CSSC[C@H](NC(=O)[C@H](CCC(=O)O)NC(=O)[C@H](Cc2c[nH]c3ccccc23)NC(=O)[C@H](CCC(N)=O)NC(=O)CCCCCNC(=O)c2ccc(C(=O)[O-])c(-c3c4ccc(=[N+](C)C)cc-4oc4cc(N(C)C)ccc34)c2)C(=O)N2CCC[C@H]2C(=O)N[C@@H](Cc2ccc(O)cc2)C(=O)NCC(=O)N[C@@H](CC(C)C)C(=O)N1)C(=O)N[C@@H](CCC(N)=O)C(N)=O` (stereo partly drawn) [Structure XI] ({X1-Ahx}-QWECPYGLCW[Ile(3ξ)]Q-NH2; disulfide 4-9) the “Detection of fibrin based on signal of fibrin-optical agent complexes” value (fibrin) was “Fibrin was detected”, the “Detection of fibrin based on signal of fibrin-optical agent complexes” value [1] was “Fibrin was detected” and the Kd (DD(E) fragment of fibrin) was 0.09 µM.
